Results on two compounds are retold here after patent US20240252586A1, “ENGINEERED ANTIMICROBIAL PEPTIDES AND USAGE THEREOF” (priority 2021, published 2024).

Test [1] relates to Staphylococcus aureus NRS 382 (USA100 MRSA) biofilm. The experiment in a line: Wire biofilm time-kill assay (Study 3). The test is classed as cell-based. To be noted: 150 mM sodium bicarbonate, 1 mg/mL; for CFU/mL: per replicate. From the text: Study 3. […]
These three vehicles without SEQ ID NO: 1 served as the untreated controls. Double strength Dey/Engley neutralizing broth was used as a neutralizer for dilution and plating during determination of colony-forming units (CFU)/mL at each time point.
In order to establish the biofilm on the wires, the following procedure was followed: An overnight culture of each isolate was made in Tryptic soy broth. K-wires that were cut to 6 mm and sterilized by autoclaving were placed in 24 well plates and inoculated with 1 mL of a normalized bacterial suspension containing approximately 1×10^6 CFU/mL in cation-adjusted Mueller-Hinton broth. The plates containing the wires were incubated for 24 hr at 35° C. followed by removing the planktonic cells by carefully pipetting the medium from the wells. Fresh CAMHB (1 mL) was added to the wells containing the wires and the plates were incubated for an additional 24 hr at 35° C.
After the biofilm was established, the wires were removed from the wells using sterile forceps, rinsed with 1 mL of PBS, and placed in the appropriate treatment well containing 0, 1, 5, or 10 mg/mL SEQ ID NO: […] After the designated time, each wire was removed, rinsed with 1 mL of PBS, and then placed in an Eppendorf tube with 1 mL of double strength Dey-Engley medium. The wires were then sonicated at room temperature for 10 min to dislodge bacteria using a Lab Line Instruments sonicator at a setting of 100%.
A 0.2 mL aliquot of sonicate was removed and pipetted into column 1 of a 96-well plate that contained 180 μL of double strength Dey-Engley medium in columns 2 through 5. […] The plate was then tilted at a […] to allow the diluted sample to track across the agar surface to the opposite side of the plate. The plates were laid flat, allowed to dry at room temperature, then inverted and incubated at 35° C. for approximately 24 hr. Colonies were manually counted to determine the viable count in CFU/mL.

The test system of the next test is E. Coli ATCC BAA-2469. The protocol:
(§1) SEQ ID NO: 1 stocks were made at 5.12 mg/mL in water adjusted to pH of 5.0 with 1% glacial acetic acid.
(§2) The test organisms (Table 7) consisted of clinical isolates from the Micromyx (MMX) repository, a reference isolate from the American Type Culture Collection (ATCC, Manassas, VA) and the Centers for Disease Control (CDC, Atlanta GA). Upon initial receipt, the isolates were streaked under suitable conditions onto agar medium appropriate to each organism. The organisms were incubated for 18-24 hr at 35° C. in ambient atmosphere. Colonies harvested from these growth plates were resuspended in the appropriate medium containing a cryoprotectant. Aliquots of each suspension were then stored frozen at −80° C. Prior to testing, all organisms were cultured onto trypticase soy agar containing 5% sheep blood. The agar plates were incubated as described above.
(§3) The Test media used for MIC and FIC were testing were cation-adjusted Mueller-Hinton broth (CAMHB) and Roswell Park Memorial Institute (RPMI-1640), buffered with 3-(N-morpholino)propanesulfonic acid (MOPS). Each test media was supplemented with 0.002% Tween-80 (P-80) prior to testing.
(§4) MIC assay plates were prepared for broth microdilution in accordance with guidelines from the Clinical and Laboratory Standards Institute (CLSI); automated liquid handlers (Biomek 3000 and Biomek FX) and multi-channel pipettes were used to conduct serial dilutions and liquid transfers. MIC assay plates were prepared using a 96-well, deep-well microdilution plate that mimicked the layout of the daughter plates.
(§5) For the mother plate, wells across the standard 96-well microdilution plate were filled with 150 μL of sterile saline 0.002% P-80 in columns 2 through 12. […] The Biomek 300 was used to make eleven 2-fold serial dilutions horizontally across each row of the plate from columns 2 through 11. The Biomek FX was then used to transfer 5 μL of the SEQ ID NO: 1 and saline 0.002% P-80 to the daughter plates.
(§6) A standardized inoculum of each organism was prepared per CLSI methods. Suspensions were prepared to equal a 0.5 McFarland standard followed by a 1:10 dilution into test medium. The inocula were dispensed into sterile reservoirs divided by length and the Biomek 3000 was used to inoculate the plates. Daughter plates were placed on the Biomek 3000 work surface in reverse orientation so that inoculation took place from low to high drug concentration. The Biomek 3000 delivered 10 μL of the diluted suspension into each well. These inoculations yielded a final cell concentration in the daughter plates of approximately 5×10^5 CFU/mL in each well. Plates were incubated at 35° C. for 16-20 hr. The microplates were viewed from the bottom using a plate viewer and the MIC was recorded as the lowest concentration of drug that inhibited visible growth of the organism.

A further test deals with S. aureus NRS 384. How it is done:
as §1, §2, §3, §4, §5, §6

The next test relates to S. epidermidis MMX 8655. How it is done:
as §1, §2, §3, §4, §5, §6

The subject of a further test is S. epidermidis MMX 5129. How it is done: as §1, §2, §3, §4, §5, §6
In a further test the test system is P. aeruginosa ATCC 27853. How it is done: as §1, §2, §3, §4, §5, §6
The subject of a further test is E. Coli CDC 0451. The protocol: as §1, §2, §3, §4, §5, §6
Another test concerns S. aureus NRS 382. The protocol: as §1, §2, §3, §4, §5, §6
In the next test the test system is S. epidermidis MMX 3628. The protocol: as §1, §2, §3, §4, §5, §6
For a further test, the system named is P. aeruginosa CDC 0509. How it is done:
as §1, §2, §3, §4, §5, §6

Test [2] relates to P. aeruginosa CDC 0515. The protocol:
as §1, §2, §3, §4, §5, §6

The next test concerns S. aureus ATCC 29213. The protocol:
as §1, §2, §3, §4, §5, §6

In the next test the test system is E. Coli ATCC 25922. How it is done: as §1, §2, §3, §4, §5, §6
Test [3] concerns P. aeruginosa CDC 0515. To be noted: for FICA / MICA: RPMI; for MICA: in combination with SEQ ID NO: 1. How it is done:
FIC test ranges were set based on broth microdilution MIC test data. FIC assay plates were prepared in accordance with CLSI guidelines for broth microdilution susceptibility testing; automated liquid handlers, and multi-channel pipettes were used to conduct serial dilutions and liquid transfers.
SEQ ID NO: 1 was tested at two concentration ranges depending on the test media. All organisms tested in CAMHB 0.002% P-80 were tested from 0.015-16 μg/mL; when tested in RPMI 0.002% P-80, the range tested was 0.004-4 μg/mL. For each SEQ ID NO: 1 mother, wells across the standard 96-well microdilution plate were filled with 150 μL of sterile saline 0.002% P-80 in columns 2 through 12. A 300 μL aliquot at 20× the highest final concentration of each dilution range to be tested, was added to each well in column 1 of the plate. The Biomek 3000 was used to make eleven 2-fold serial dilutions horizontally across each row of the plate columns 2 through 11.
The daughter plates were then completed using the Biomek FX to transfer 5 μL of drug solution from each well of the SEQ ID NO: 1 mother plates to the corresponding well in each daughter plate in a single step. […] The preparation of the daughter plates was performed for each media type; two times in total as all organisms were tested in both media types.
A standard inoculum for each organism was prepared per CLSI method. Colonies were picked up from the primary plate and a suspension was prepared equal to 0.5 McFarland turbidity standard. The suspensions were additionally diluted 1:10 in the appropriate broth. A 10 μL standardized inoculum was delivered into each well using the Biomek 3000 from low to high concentration. These inoculations yielded a final cell concentration in the daughter plates of approximately 5×10^5 CFU/mL in each well. […] Exemplary checkboard panels are seen in Table 5 and Table 6. Plates were incubated at 35° C. for 16-20 hr.
The MIC of the horizontal agent (row H) and the MIC of the vertical agent (column 12) were recorded and the wells of the growth-no growth interface for wells containing agents in combination at varying ratios were recorded by row. […] Pinpoint trailing was not interpreted as growth.
For each relevant row of the panel, the FICI was calculated as:
FICdrug A/MICdrug A+FICdrug B/MICdrug=FICI
Mean FICI values were determined for each combination tested by averaging the FICI values as observed on each row of the checkerboard assay (See Table 9, e.g., if there were FICI values for B-G, those FICI values were added together and divided by the number of rows the FICI values which in this case is 6 to get the mean FICI value for that combination).
Using the criteria described by: Odds FC. 2003. Synergy, antagonism, and what the chequerboard puts between them. J Antimicrob Chemother 52(1):1, the mean FICI for the combination was interpreted as follows: ≤0.5=synergy, >0.5-4=additive/indifferent, and >4=antagonism. […] An interpretation of indifference is consistent with growth inhibition at concentrations at or slightly below/above the MICs of the individual agents alone, resulting in a FICI value of >0.5 but […].

“And” between values parts separate entries of the source, which are not always exact repeats. Equal values may be shown once. Read-outs that look alike come from different tables or passages of the source. Bounds are passed on as bounds.

As to SEQ ID: 1 (RRWVRRVRRVWRRVVRVVRRWVRR), the “Mean CFU/mL” value in test [1] (0 min) was determined as 1.08E+5 CFU/mL; in test [1] (1 min), 1.68E+3 CFU/mL; in [1] (5 min), 5.00E+1 CFU/mL; in test [1] ([…]), 1.17E+2 CFU/mL. The CFU/mL in [1] (0 min) is 4.80E+04 CFU/mL and 1.50E+05 CFU/mL and 1.25E+05 CFU/mL; in [1] (1 min) it was 8.00E+02 CFU/mL and 3.15E+03 CFU/mL and 1.10E+03 CFU/mL; in test [1] (5 min) it was 5.00E+01 CFU/mL. Further, the “CFU/mL 2” value in [1] (5 min) came out at 0 CFU/mL; in test [1] ([…]), 1.00E+02 CFU/mL.
The MIC is the lowest concentration that inhibits growth of the organism. `O=C([O-])O.[Na+]` [Sodium Bicarbonate]: the MIC with E. Coli ATCC BAA-2469 (CAMHB), against E. Coli ATCC BAA-2469 (RPMI), against S. aureus NRS 384 (CAMHB), against S. aureus NRS 384 (RPMI), against S. epidermidis MMX 8655 (CAMHB) and against S. epidermidis MMX 8655 (RPMI) was 200 mM in each case. Further, the minimum inhibitory concentration (MIC) turned out to be 200 mM against S. epidermidis MMX 5129 (CAMHB); 200 mM in the test on S. epidermidis MMX 5129 (RPMI); 200 mM in the test on P. aeruginosa ATCC 27853 (CAMHB); 200 mM in the test on P. aeruginosa ATCC 27853 (RPMI); 100 mM in the test with E. Coli CDC 0451 (CAMHB); 200 mM in the test on E. Coli CDC 0451 (RPMI). The MIC against S. aureus NRS 382 (CAMHB) is given as 200 mM; against S. aureus NRS 382 (RPMI) it was 200 mM; in the test on S. epidermidis MMX 3628 (CAMHB), 100 mM; with S. epidermidis MMX 3628 (RPMI) it was 200 mM; in the test on P. aeruginosa CDC 0509 (CAMHB), 200 mM; against P. aeruginosa CDC 0509 (RPMI), 200 mM. The MIC is 200 mM with P. aeruginosa CDC 0515 [2] (CAMHB); 200 mM against P. aeruginosa CDC 0515 [2] (RPMI); over 200 mM in the test with S. aureus ATCC 29213 (CAMHB); 200 mM with S. aureus ATCC 29213 (RPMI); 200 mM with E. Coli ATCC 25922 (CAMHB); 200 mM against E. Coli ATCC 25922 (RPMI). In the test with P. aeruginosa CDC 0515 [3] (CAMHB, alone), the “Drug A MIC” value is reported as over 100. Also, the FICA in the test with P. aeruginosa CDC 0515 [3] (checkerboard row A) is on record as 0.5; with P. aeruginosa CDC 0515 [3] (checkerboard row B), 0.25; with P. aeruginosa CDC 0515 [3] (checkerboard row C), 0.125; with P. aeruginosa CDC 0515 [3] (checkerboard row D), 0.063; in the test with P. aeruginosa CDC 0515 [3] (checkerboard row E) it was 0.031; in the test on P. aeruginosa CDC 0515 [3] (checkerboard row F) it was 0.016. Also, the FICA with P. aeruginosa CDC 0515 [3] (checkerboard row G) was determined as 0.008. For the same compound, the MICA with P. aeruginosa CDC 0515 [3] (checkerboard row A) came to 100; in the test on P. aeruginosa CDC 0515 [3] (checkerboard row B) it was 50; with P. aeruginosa CDC 0515 [3] (checkerboard row C), 25; in the test on P. aeruginosa CDC 0515 [3] (checkerboard row D), 12.5; with P. aeruginosa CDC 0515 [3] (checkerboard row E), 6.25; with P. aeruginosa CDC 0515 [3] (checkerboard row F), 3.12. Also, in the test with P. aeruginosa CDC 0515 [3] (checkerboard row G), the MICA came to 1.56.
